The values below come from patent US20220204497A1, “NOVEL COMPOUND HAVING ANTICANCER ACTIVITY, AND METHOD FOR PRODUCING SAME” (MEDICINAL BIOCONVERGENCE RESEARCH CENTER, priority 2019, published 2022).

Values joined by “and” are separate entries in the source; they are usually repeats but may differ in a detail not shown here. Identical values can stand only once.

For one data set, the system named is A549 cells. As to the kind of experiment: Cell viability by MTT method in A549 cells. The data set is classed as cell-based. Also noted: concentration or dose not given beside the values. The settings on record: 72 hours treatment. (In general: Tetrazolium dyes change colour on reduction, which living cells bring about.)
In a further data set the target is T1, AIMP2-DX2 (Homo sapiens, UniProt Q13155).
T1 sequence (Q13155 1-251 isoform Q13155-2): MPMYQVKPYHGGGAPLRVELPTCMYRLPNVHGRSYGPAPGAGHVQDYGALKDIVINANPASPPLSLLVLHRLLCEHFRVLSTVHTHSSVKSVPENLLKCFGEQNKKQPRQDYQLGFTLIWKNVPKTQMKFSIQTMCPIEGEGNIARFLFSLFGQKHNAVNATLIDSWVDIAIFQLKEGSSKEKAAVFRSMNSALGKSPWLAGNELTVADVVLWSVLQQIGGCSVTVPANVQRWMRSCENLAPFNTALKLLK
In words: DX2-nanoluciferase assay (DX2 expression change) in transfected A549 cells. The settings on record: for inhibition at 40 µM / inhibition at 10 µM: A549, 4 h; for inhibition at 40 µM: read-out: DX-Nanoluciferase activity (40 μM), 40 μM, 4 hours treatment, A549 cells transfected with nanoluciferase-DX2; for inhibition at 10 µM: read-out: DX-Nanoluciferase activity (10 μM), 10 μM, 4 hours treatment, A549 cells transfected with nanoluciferase-DX2.

The mark [1] stands for this setting: inhibitory effect on AIMP2-DX2 expression.
The mark [2] stands for this setting: 4 hours treatment, A549 cells transfected with nanoluciferase-DX2.

Method for AIMP2-DX2: After cloning DX2 into a plasmid expressing nanoluciferase, the plasmid was transfected into A549 cells. Transfected cells were seeded 1×10^4 per well in a 96-well plate and stabilized for 12 hours. […] Cell viability was measured by the MTT method after 72 hours of treatment with each concentration of the compound in A549 cells.

For `CC(C)NC(=O)[C@H](Cc1c[nH]c2ccccc12)NS(=O)(=O)c1ccc(Br)cc1` [Compound 181, (S)-2-(4-Bromophenylsulfonamido)-3-(1H-indol-3-yl)-N-isopropylpropanamide], in the data set on A549 cells, the “Cell Viability (% inhibition) (A549)” value amounted to 98.95 ± 0.74%. At AIMP2-DX2 (setting [1]), the inhibition at 40 µM was determined as 44.1 ± 2.97%.

Consider `COc1ccc(C(=O)NNC(=O)[C@H](Cc2c[nH]c3ccccc23)NS(=O)(=O)c2ccc(C)cc2)cc1` [Compound 182, (S)—N-(3-(1H-indol-3-yl)-1-(2-(4-methoxybenzoyl)hydrazinyl)-1-oxopropan-2-yl)-4-methylbenzenesulfonamide], for which, in the data set on A549 cells, the “Cell Viability (% inhibition) (A549)” value is 0.19 ± 15.38%. The “DX-Nanoluciferase activity (10 μM)” value on AIMP2-DX2 (setting [2]) is 69.62 ± 3.16 (10 μM).

For `COc1ccc(NC(=O)NNC(=O)[C@H](Cc2c[nH]c3ccccc23)NS(=O)(=O)c2ccc(C)cc2)cc1` [Compound 183, (S)-2-(3-(1H-indol-3-yl)-2-(4-methylphenylsulfonamido)propanoyl)-N-(4-methoxyphenyl)hydrazinecarboxamide], the “Cell Viability (% inhibition) (A549)” value with A549 cells is listed as 42.25 ± 5.21%. Also, the inhibition at 10 µM at AIMP2-DX2 is 68.1 ± 8.2%.

Consider `Cc1cc(C)n(C(=O)[C@H](Cc2c[nH]c3ccccc23)NS(=O)(=O)c2ccc(Br)cc2)n1` [Compound 184, (S)-4-Bromo-N-(1-(3,5-dimethyl-1H-pyrazol-1-yl)-3-(1H-indol-3-yl)-1-oxopropan-2-yl)benzenesulfonamide], for which, in the data set on A549 cells, the “Cell Viability (% inhibition) (A549)” value was −24.64 ± 2.77%. The inhibition at 10 µM at AIMP2-DX2 worked out at 78.4%.

`Cc1ccc(S(=O)(=O)N[C@@H](Cc2c[nH]c3ccccc23)C(=O)NNC(=O)C23CC4CC(CC(C4)C2)C3)cc1` [Compound 186, N—((S)-1-(2-((3S,5S,7S)-adamantane-1-carbonyl)hydrazinyl)-3-(1H-indol-3-yl)-1-oxopropan-2-yl)-4-methylbenzenesulfonamide]: in the data set on A549 cells, the “Cell Viability (% inhibition) (A549)” value was found to be 59.96 ± 10.37%. For the same molecule, the “DX-Nanoluciferase activity (10 μM)” value at AIMP2-DX2 (setting [2]) is 78.43 ± 6.05 (10 μM).

Turning to `Cc1ccc(-c2csc(NC(=O)[C@H](Cc3c[nH]c4ccccc34)NS(=O)(=O)c3ccc(Br)cc3)n2)cc1` [Compound 187, (S)-2-(4-Bromophenylsulfonamido)-3-(1H-indol-3-yl)-N-(4-(p-tolyl)thiazol-2-yl)propanamide], in the data set with A549 cells, the “Cell Viability (% inhibition) (A549)” value came to 61.41 ± 4.21%. Besides, the inhibition at 10 µM on AIMP2-DX2 amounted to 34.9 ± 10.6%.

Take `Cc1ccc(S(=O)(=O)N[C@@H](Cc2c[nH]c3ccccc23)C(=O)NCCc2ccccc2)cc1` [Compound 188, (S)-3-(1H-indol-3-yl)-2-(4-methylphenylsulfonamido)-N-phenethylpropanamide]: the “Cell Viability (% inhibition) (A549)” value in the data set with A549 cells is 53.90 ± 1.97%. Besides, the inhibition at 10 µM at AIMP2-DX2 is 61.1 ± 12.9%.

`COc1ccc(C(=O)NNC(=O)[C@H](Cc2c[nH]c3ccccc23)NS(=O)(=O)c2ccc(C)cc2)cc1` [Compound 191, (S)—N-(3-(1H-Indol-3-yl)-1-(2-(4-methoxybenzoyl)hydrazinyl)-1-oxopropan-2-yl)-4-methylbenzenesulfonamide]: the “Cell Viability (% inhibition) (A549)” value with A549 cells is 49.17 ± 2.36%. Besides, at AIMP2-DX2 (setting [2]), the “DX-Nanoluciferase activity (10 μM)” value is on record as 8.09 ± 6.94 (10 μM).

As to `N#Cc1ccc(-c2csc(NC(=O)[C@H](Cc3c[nH]c4ccccc34)NS(=O)(=O)c3ccc(Br)cc3)n2)cc1` [Compound 192, (S)-2-(4-Bromophenylsulfonamido)-N-(4-(4-cyanophenyl)thiazol-2-yl)-3-(1H-Indol-3-yl)propanamide], in the data set on A549 cells, the “Cell Viability (% inhibition) (A549)” value was found to be 81.69 ± 2.49%. In addition, the inhibition at 10 µM at AIMP2-DX2 amounted to 15.5 ± 3.27%.

For the molecule `O=C(Nc1nc(-c2ccc(C(F)(F)F)cc2)cs1)[C@H](Cc1c[nH]c2ccccc12)NS(=O)(=O)c1ccc(Br)cc1` [Compound 193, (S)-2-(4-Bromophenylsulfonamido)-3-(1H-Indol-3-yl)-N-(4-(4-(trifluoromethyl)phenyl)thiazol-2-yl)propanamide], the “Cell Viability (% inhibition) (A549)” value in the data set on A549 cells is 88.98 ± 0.59% and 88.98 ± 10.59%. In addition, the inhibition at 10 µM at AIMP2-DX2 stood at 49.3 ± 9.52%.

On to `O=C(NCCc1ccccc1)[C@H](Cc1c[nH]c2ccccc12)NS(=O)(=O)c1ccc(Br)cc1` [Compound 196, (S)-2-(4-Bromophenylsulfonamido)-3-(1H-indol-3-yl)-N-phenethylpropanamide], for which the “Cell Viability (% inhibition) (A549)” value in the data set on A549 cells is recorded as 79.27 ± 0.55%. Further, at AIMP2-DX2, the inhibition at 10 µM was 28.2 ± 2.11%.

Regarding `O=C(NNC(=O)C12CC3CC(CC(C3)C1)C2)[C@H](Cc1c[nH]c2ccccc12)NS(=O)(=O)c1ccc(Br)cc1` [Compound 197, N—((S)-1-(2-((3S,5S,7S)-adamantane-1-carbonyl)hydrazinyl)-3-(1H-indol-3-yl)-1-oxopropan-2-yl)-4-bromobenzenesulfonamide], in the data set on A549 cells, the “Cell Viability (% inhibition) (A549)” value worked out at 84.86 ± 1.09%. The “DX-Nanoluciferase activity (10 μM)” value at AIMP2-DX2 (setting [2]) was 43.54 ± 5.26 (10 μM) and 43.64 ± 5.26 (10 μM).

On to `O=C(NCCc1ccc(F)cc1)[C@H](Cc1c[nH]c2ccccc12)NS(=O)(=O)c1ccc(Br)cc1` [Compound 198, (S)-2-(4-Bromophenylsulfonamido)-N-(4-fluorophenethyl)-3-(1H-indol-3-yl)propanamide], for which, in the data set with A549 cells, the “Cell Viability (% inhibition) (A549)” value is listed as 82.05 ± 0.64%. Further, the inhibition at 10 µM at AIMP2-DX2 was determined as 44.2 ± 8.7%.

Regarding `COc1ccc(CCNC(=O)[C@H](Cc2c[nH]c3ccccc23)NS(=O)(=O)c2ccc(Br)cc2)cc1` [Compound 199, (S)-2-(4-Bromophenylsulfonamido)-3-(1H-indol-3-yl)-N-(4-methoxyphenethyl)propanamide], in the data set with A549 cells, the “Cell Viability (% inhibition) (A549)” value amounted to 84.34 ± 0.87%. In addition, the inhibition at 40 µM on AIMP2-DX2 (setting [1]) is 30.6 ± 8.13%.

Regarding `O=C(NCCCc1ccccc1)[C@H](Cc1c[nH]c2ccccc12)NS(=O)(=O)c1ccc(Br)cc1` [Compound 200, (S)-2-(4-Bromophenylsulfonamido)-3-(1H-indol-3-yl)-N-(3-phenylpropyl)propanamide], in the data set on A549 cells, the “Cell Viability (% inhibition) (A549)” value turned out to be 79.27 ± 0.9%. Further, the inhibition at 40 µM on AIMP2-DX2 (setting [1]) is 46.4 ± 4.51%.

Consider `O=C(NC12CC3CC(CC(C3)C1)C2)[C@H](Cc1c[nH]c2ccccc12)NS(=O)(=O)c1ccc(Br)cc1` [Compound 201, (S)—N((3R,5R,7R)-adamantan-1-yl)-2-(4-bromophenylsulfonamido)-3-(1H-Indol-3-yl)propanamide], for which, in the data set with A549 cells, the “Cell Viability (% inhibition) (A549)” value is recorded as 87.1 ± 0.46%. Further, on AIMP2-DX2 (40 μM, 4 hours treatment, A549 cells transfected with nanoluciferase-DX2, inhibitory effect on AIMP2-DX2 expression), the “DX-Nanoluciferase activity (40 μM)” value turned out to be 58.25 ± 4.09.

For the molecule `COc1ccc(N2CCN(C(=O)[C@H](Cc3c[nH]c4ccccc34)NS(=O)(=O)c3ccc(Br)cc3)CC2)cc1` [Compound 202, (S)—N-(3-(1H-indol-3-yl)-1-(4-(4-methoxyphenyl)piperazin-1-yl)-1-oxopropan-2-yl)-4-bromobenzenesulfonamide], the “Cell Viability (% inhibition) (A549)” value in the data set with A549 cells amounted to 78.44 ± 2.44%. Further, the inhibition at 40 µM at AIMP2-DX2 (setting [1]) stood at 38.6 ± 11.3%.

In the case of `COc1ccc(N2CCN(C(=O)[C@H](Cc3c[nH]c4ccccc34)NS(=O)(=O)c3ccc(C)cc3)CC2)cc1` [Compound 203, (S)—N-(3-(1H-indol-3-yl)-1-(4-(4-methoxyphenyl)piperazin-1-yl)-1-oxopropan-2-yl)-4-methylbenzenesulfonamide], the “Cell Viability (% inhibition) (A549)” value in the data set with A549 cells is recorded as 48.15 ± 3.26%. For the same molecule, the inhibition at 40 µM at AIMP2-DX2 (setting [1]) worked out at 35.1 ± 14.2%.

Regarding `COc1ccc(-c2csc(NC(=O)[C@H](Cc3c[nH]c4ccc(O)cc34)NS(=O)(=O)c3ccc(Br)cc3)n2)cc1` [Compound 217, (S)-2-(4-Bromophenylsulfonamido)-3-(5-hydroxy-1H-indol-3-yl)-N-(4-(4-methoxyphenyl)thiazol-2-yl)propanamide], the “Cell Viability (% inhibition) (A549)” value in the data set with A549 cells is reported as 89.41 ± 0.79%. For the same molecule, the inhibition at 10 µM at AIMP2-DX2 is 21.3%.

On to `COc1ccc(-c2csc(NC(=O)[C@H](Cc3c[nH]c4ccc(C)cc34)NS(=O)(=O)c3ccc(Br)cc3)n2)cc1` [Compound 218, (S)-2-(4-Bromophenylsulfonamido)-N-(4-(4-methoxyphenyl)thiazol-2-yl)-3-(5-methyl-1H-indol-3-yl)propanamide], for which, in the data set on A549 cells, the “Cell Viability (% inhibition) (A549)” value amounted to 90.98 ± 1%. In addition, at AIMP2-DX2, the inhibition at 10 µM amounted to 34.8%.

Regarding `COc1ccc(-c2csc(NC(=O)[C@H](Cc3c[nH]c4ccc(F)cc34)NS(=O)(=O)c3ccc(Br)cc3)n2)cc1` [Compound 219, (S)-2-(4-Bromophenylsulfonamido)-3-(5-fluoro-1H-indol-3-yl)-N-(4-(4-methoxyphenyl)thiazol-2-yl)propanamide], the “Cell Viability (% inhibition) (A549)” value with A549 cells is 95.58 ± 0.08%. For the same molecule, on AIMP2-DX2, the inhibition at 10 µM amounted to 46.9 ± 8.36%.

For `Cc1ccc(S(=O)(=O)N[C@@H](Cc2c[nH]c3ccccc23)C(=O)NCCc2ccc(C(=O)O)cc2)cc1` [Compound 220, (S)-4-(2-(3-(1H-indol-3-yl)-2-(4-methylphenylsulfonamido)propanamido)ethyl)benzoic acid], the “Cell Viability (% inhibition) (A549)” value with A549 cells is −11.09 ± 8.4%. Besides, the inhibition at 10 µM on AIMP2-DX2 is 15.9 ± 19.4%.

With `Cc1ccc(S(=O)(=O)N[C@@H](Cc2c[nH]c3ccccc23)C(=O)NCCc2ccc(Br)cc2)cc1` [Compound 221, (S)—N-(4-bromophenethyl)-3-(1H-indol-3-yl)-2-(4-methylphenylsulfonamido)propanamide], the “Cell Viability (% inhibition) (A549)” value in the data set on A549 cells amounted to 97.31 ± 0.8%. The inhibition at 10 µM at AIMP2-DX2 worked out at 40.1 ± 3.09%.

For `Cc1ccc(S(=O)(=O)N[C@@H](Cc2c[nH]c3ccccc23)C(=O)NCCc2c[nH]c3ccccc23)cc1` [Compound 222, (S)—N-(2-(1H-indol-3-yl)ethyl)-3-(1H-indol-3-yl)-2-(4-methylphenylsulfonamido)propanamide], the “Cell Viability (% inhibition) (A549)” value in the data set with A549 cells was determined as 91.05 ± 1.38%. Also, at AIMP2-DX2, the inhibition at 10 µM amounted to 31.3 ± 14.7%.
